Laboratory results as given in PubChem BioAssay (NCI).
Several values for one entry are separate records, joined by “and”; a condition that tells them apart may be missing. Identical values can stand only once.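 Following 48 hours of exposure in 96-well plates, responses at five concentrations were used to interpolate endpoints linearly. At the GI50, growth is halved. The concentration for full growth arrest is given as TGI.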

Columns and labels:
Assay in all cases: growth of human tumour cells (NCI), 48 h
[1] = system: UACC-257 melanoma
[2] = system: MDA-MB-435
[3] = system: T-47D breast
[4] = system: A549 NSCLC
[5] = system: HCT-15 colon
[6] = system: UACC-62 melanoma
[7] = system: BT-549 breast
[8] = system: EKVX NSCLC
[9] = system: SF-295 CNS
[10] = system: SK-OV-3 ovarian
[11] = system: MDA-N
[12] = system: UO-31 renal
[13] = system: SF-268 CNS
[14] = system: CAKI-1 renal
[15] = system: U251 CNS
[16] = system: DU-145 prostate
[17] = system: HOP-62 NSCLC
[18] = system: LOX IMVI melanoma
[19] = system: NCI/ADR-RES ovarian
[20] = system: A498 renal
[21] = system: OVCAR-5 ovarian
[22] = system: NCI-H23 lung
[23] = system: IGROV1 ovarian
[24] = system: SW-620 colon
[25] = system: HCT-116 colon
[26] = system: SNB-19 CNS
[27] = system: ACHN renal
[28] = system: SF-539 CNS
[29] = system: COLO 205 colon
[30] = system: OVCAR-3 ovarian
[31] = system: SK-MEL-5 melanoma
[32] = system: 786-0 renal
[33] = system: NCI-H226 lung
[34] = system: RXF 393 renal
[35] = system: M14 melanoma
[36] = system: OVCAR-8 ovarian
[37] = system: HS 578T breast
[38] = system: SN12C renal
[39] = system: KM12 colon
[40] = system: NCI-H460 lung
[41] = system: NCI-H522 lung
[42] = system: SK-MEL-2 melanoma
[43] = system: MALME-3M melanoma
[44] = system: MDA-MB-231 breast
[45] = system: TK-10 renal
[46] = system: MCF7 breast
[47] = system: PC-3 prostate
[48] = system: SR leukemia
[49] = system: K-562 leukemia
[50] = system: MOLT-4 leukemia
[51] = system: HL-60(TB) leukemia
[52] = system: SK-MEL-28 melanoma
[53] = system: OVCAR-4 ovarian
[54] = system: HT29 colon
[55] = system: RPMI-8226 leukemia
[56] = system: HOP-92 NSCLC
[57] = system: SNB-75 CNS
[58] = system: CCRF-CEM leukemia
[59] = system: HCC-2998 colon

SMILES: C=C(CCC=C(C)C)C1CC=C(C)CC1 (configuration not stated)
- TGI [1]: > 100 µM
- TGI [2]: 35.7 µM
- TGI [3]: > 100 µM
- TGI [4]: 39 µM
- TGI [5]: 39.6 µM
- TGI [6]: > 100 µM
- TGI [7]: > 100 µM
- TGI [8]: 92.7 µM
- TGI [9]: 45 µM
- TGI [10]: > 100 µM
- TGI [11]: 37.9 µM
- TGI [12]: 30.6 µM
- TGI [13]: > 100 µM
- TGI [14]: 42.2 µM
- TGI [15]: 34.8 µM
- TGI [16]: 71.1 µM
- TGI [17]: 37.4 µM
- TGI [18]: 21.9 µM
- TGI [19]: > 100 µM
- TGI [20]: > 100 µM
- TGI [21]: > 100 µM
- TGI [22]: 34.9 µM
- TGI [23]: 28.4 µM
- TGI [24]: 53.6 µM
- TGI [25]: 57.9 µM
- TGI [26]: > 100 µM
- TGI [27]: 33.4 µM
- TGI [28]: 68.2 µM
- TGI [29]: 71.5 µM
- TGI [30]: 81.2 µM
- TGI [31]: 31 µM
- TGI [32]: 35.7 µM
- TGI [33]: > 100 µM
- TGI [34]: 31.6 µM
- TGI [35]: > 100 µM
- TGI [36]: > 100 µM
- TGI [37]: 59 µM
- TGI [38]: 41.3 µM
- TGI [39]: 52.6 µM
- TGI [40]: 40.1 µM
- TGI [41]: 32.3 µM
- TGI [42]: 37.5 µM
- TGI [43]: > 100 µM
- TGI [44]: 97.6 µM
- TGI [45]: > 100 µM
- TGI [46]: 42.2 µM

SMILES: N#CCNC(=O)c1ccc(-c2ccnc(Nc3ccc(N4CCOCC4)cc3)n2)cc1
- GI50 [1]: > 10 µM and 4.39 µM
- TGI [1]: > 100 µM
- GI50 [2]: 4.75 µM and 2.82 µM
- TGI [2]: > 100 µM
- GI50 [3]: > 10 µM and 9.94 µM
- TGI [3]: > 10 µM and 99.8 µM
- GI50 [4]: 4.47 µM and 1.75 µM
- TGI [4]: > 10 µM and 12.4 µM
- GI50 [5]: 3.1 µM and 2.3 µM
- TGI [5]: > 100 µM
- GI50 [6]: 4.44 µM and 3.66 µM
- TGI [6]: > 57.8 µM
- GI50 [7]: 2.24 µM and 1.54 µM
- TGI [7]: > 10 µM and 5.8 µM
- GI50 [8]: > 10 µM
- TGI [8]: > 10 µM
- GI50 [9]: 4.56 µM and 1.94 µM
- TGI [9]: > 10 µM and 16.6 µM
- GI50 [10]: 4.04 µM and 3.83 µM
- TGI [10]: > 10 µM and 24.7 µM
- GI50 [47]: 3.77 µM and 1.77 µM
- TGI [47]: > 10 µM and 38.8 µM
- GI50 [12]: 1.1 µM and 0.36 µM
- TGI [12]: 4.19 µM and 3.4 µM
- GI50 [48]: 0.498 µM and 0.458 µM
- TGI [48]: 3.88 µM and 5.47 µM
- GI50 [13]: 1.78 µM and 1.41 µM
- TGI [13]: > 10 µM and 17.7 µM
- GI50 [14]: 0.513 µM and 0.273 µM
- TGI [14]: 3.72 µM and 3.03 µM
- GI50 [15]: 3.46 µM and 1.79 µM
- TGI [15]: > 10 µM and 34.8 µM
- GI50 [16]: 2.62 µM and 1.65 µM
- TGI [16]: > 100 µM
- GI50 [17]: 1.88 µM and 2.12 µM
- TGI [17]: > 10 µM and 16.4 µM
- GI50 [18]: 1.74 µM and 1.35 µM
- TGI [18]: > 44.9 µM
- GI50 [19]: > 10 µM and 12.4 µM
- TGI [19]: > 100 µM
- TGI [49]: > 100 µM
- GI50 [20]: 2.35 µM and 1.91 µM
- TGI [20]: 8.73 µM and 7.66 µM
- GI50 [21]: 3.43 µM and 4.07 µM
- TGI [21]: > 54.4 µM
- GI50 [22]: 2.71 µM and 1.87 µM
- TGI [22]: > 10 µM and 38.4 µM
- GI50 [23]: 1.69 µM and 1.24 µM
- TGI [23]: > 10 µM and 20.3 µM
- GI50 [50]: 2.78 µM and 2.6 µM
- TGI [50]: > 100 µM
- GI50 [24]: 3.97 µM and 3.46 µM
- TGI [24]: > 100 µM
- GI50 [25]: 1.49 µM and 1.19 µM
- TGI [25]: > 24.8 µM
- GI50 [26]: 7.23 µM and 10.2 µM
- TGI [26]: > 10 µM and 78.4 µM
- GI50 [27]: 1.35 µM and 0.531 µM
- TGI [27]: > 37.1 µM
- GI50 [28]: 2.29 µM and 1.14 µM
- TGI [28]: > 10 µM and 10.4 µM
- GI50 [51]: 4.79 µM and 3.14 µM
- TGI [51]: > 100 µM
- GI50 [29]: 3.17 µM and 2.96 µM
- TGI [29]: > 31.5 µM
- GI50 [30]: 7.77 µM and 5.78 µM
- TGI [30]: > 10 µM and 46.6 µM
- GI50 [31]: 4.61 µM
- TGI [31]: 38.7 µM
- GI50 [32]: 1.56 µM and 1.26 µM
- TGI [32]: > 10 µM and 13.1 µM
- GI50 [33]: 0.754 µM and 0.531 µM
- TGI [33]: 7.01 µM and 21.1 µM
- GI50 [34]: 1.11 µM and 0.345 µM
- TGI [34]: 3.09 µM and 1.7 µM
- GI50 [52]: 4.49 µM and 2.56 µM
- TGI [52]: > 10 µM and 20.3 µM
- GI50 [53]: 5.94 µM and 13.3 µM
- TGI [53]: > 10 µM and 44.9 µM
- GI50 [54]: 5.71 µM and 5.38 µM
- TGI [54]: > 100 µM
- GI50 [35]: 4.47 µM and 4.29 µM
- TGI [35]: > 100 µM
- GI50 [36]: 4.26 µM and 3.16 µM
- TGI [36]: > 73.6 µM
- GI50 [37]: 0.506 µM and 0.42 µM
- TGI [37]: 4.86 µM and 12.9 µM
- GI50 [38]: 2.73 µM and 0.992 µM
- TGI [38]: > 100 µM
- GI50 [39]: 3.23 µM and 3.85 µM
- TGI [39]: > 74 µM
- GI50 [55]: 3.08 µM and 2.88 µM
- TGI [55]: > 31.9 µM
- GI50 [40]: 2.5 µM and 1.36 µM
- TGI [40]: > 10 µM and 11.3 µM
- GI50 [41]: 1.22 µM and 0.713 µM
- TGI [41]: > 10 µM and 21.5 µM
- GI50 [56]: 0.511 µM and 0.153 µM
- TGI [56]: 9.61 µM and 10.7 µM
- GI50 [42]: 3.97 µM and 2.48 µM
- TGI [42]: > 10 µM and 19 µM
- GI50 [43]: 6.44 µM and 1.26 µM
- TGI [43]: > 10 µM and 18.1 µM
- GI50 [57]: 0.621 µM and 0.186 µM
- TGI [57]: 5.6 µM and 4.17 µM
- GI50 [58]: 2.5 µM and 2.51 µM
- TGI [58]: > 30 µM
- GI50 [44]: 2.26 µM and 2.19 µM
- TGI [44]: > 100 µM
- GI50 [45]: 0.873 µM and 0.607 µM
- TGI [45]: 8.31 µM and 4.58 µM
- GI50 [59]: > 10 µM and 3.98 µM
- TGI [59]: > 10 µM and 47.4 µM
- GI50 [46]: 1.78 µM and 1.54 µM
- TGI [46]: > 10 µM and 21.4 µM

SMILES: C=C(C)CCC1CC=[N+]([O-])OC1C(C)(C)C (configuration not stated)
- TGI [1]: > 100 µM
- TGI [2]: 40.7 µM
- TGI [3]: 90.1 µM
- TGI [4]: 51.4 µM
- TGI [5]: > 100 µM
- TGI [6]: > 100 µM
- TGI [8]: > 100 µM
- TGI [9]: > 100 µM
- TGI [10]: > 100 µM
- TGI [11]: > 100 µM
- TGI [12]: 85.7 µM
- TGI [48]: > 100 µM
- TGI [13]: > 100 µM
- TGI [14]: 75.3 µM
- TGI [15]: > 100 µM
- TGI [16]: > 100 µM
- TGI [17]: > 100 µM
- TGI [18]: 40.3 µM
- TGI [19]: 67.3 µM
- TGI [49]: > 100 µM
- TGI [20]: > 100 µM
- TGI [21]: > 100 µM
- TGI [23]: > 100 µM
- TGI [50]: > 100 µM
- TGI [24]: > 100 µM
- TGI [25]: > 100 µM
- TGI [27]: > 100 µM
- TGI [28]: > 100 µM
- TGI [51]: 27.2 µM
- TGI [29]: > 100 µM
- TGI [30]: > 100 µM
- TGI [31]: > 100 µM
- TGI [32]: > 100 µM
- TGI [33]: 48.9 µM
- TGI [34]: > 100 µM
- TGI [54]: > 100 µM
- TGI [35]: 63.5 µM
- TGI [36]: > 100 µM
- TGI [37]: > 100 µM
- TGI [38]: > 100 µM
- TGI [39]: 64.8 µM
- TGI [55]: > 100 µM
- TGI [40]: > 100 µM
- TGI [41]: 58.5 µM
- TGI [56]: > 100 µM
- TGI [57]: > 100 µM
- TGI [58]: 50.5 µM
- TGI [44]: 66.8 µM
- TGI [45]: > 100 µM
- TGI [59]: > 100 µM
- TGI [46]: 89.9 µM
